How the values were obtained:
murine TLR7 = molecular target: T1, murine TLR7 (Mus musculus, UniProt P58681); assay: HEK-Blue mTLR7 NF-κB/AP-1 SEAP reporter cell assay; assay type: cell-based; conditions: HEK-Blue mTLR7 reporter cells, 10 μg/mL to 10 pg/ml, 24 hours, OD at 655 nm; FIGS. 2A, 2B
T1 construct: host or cells: HEK293 (HEK-Blue mTLR7)
T1 sequence (P58681 27-1050): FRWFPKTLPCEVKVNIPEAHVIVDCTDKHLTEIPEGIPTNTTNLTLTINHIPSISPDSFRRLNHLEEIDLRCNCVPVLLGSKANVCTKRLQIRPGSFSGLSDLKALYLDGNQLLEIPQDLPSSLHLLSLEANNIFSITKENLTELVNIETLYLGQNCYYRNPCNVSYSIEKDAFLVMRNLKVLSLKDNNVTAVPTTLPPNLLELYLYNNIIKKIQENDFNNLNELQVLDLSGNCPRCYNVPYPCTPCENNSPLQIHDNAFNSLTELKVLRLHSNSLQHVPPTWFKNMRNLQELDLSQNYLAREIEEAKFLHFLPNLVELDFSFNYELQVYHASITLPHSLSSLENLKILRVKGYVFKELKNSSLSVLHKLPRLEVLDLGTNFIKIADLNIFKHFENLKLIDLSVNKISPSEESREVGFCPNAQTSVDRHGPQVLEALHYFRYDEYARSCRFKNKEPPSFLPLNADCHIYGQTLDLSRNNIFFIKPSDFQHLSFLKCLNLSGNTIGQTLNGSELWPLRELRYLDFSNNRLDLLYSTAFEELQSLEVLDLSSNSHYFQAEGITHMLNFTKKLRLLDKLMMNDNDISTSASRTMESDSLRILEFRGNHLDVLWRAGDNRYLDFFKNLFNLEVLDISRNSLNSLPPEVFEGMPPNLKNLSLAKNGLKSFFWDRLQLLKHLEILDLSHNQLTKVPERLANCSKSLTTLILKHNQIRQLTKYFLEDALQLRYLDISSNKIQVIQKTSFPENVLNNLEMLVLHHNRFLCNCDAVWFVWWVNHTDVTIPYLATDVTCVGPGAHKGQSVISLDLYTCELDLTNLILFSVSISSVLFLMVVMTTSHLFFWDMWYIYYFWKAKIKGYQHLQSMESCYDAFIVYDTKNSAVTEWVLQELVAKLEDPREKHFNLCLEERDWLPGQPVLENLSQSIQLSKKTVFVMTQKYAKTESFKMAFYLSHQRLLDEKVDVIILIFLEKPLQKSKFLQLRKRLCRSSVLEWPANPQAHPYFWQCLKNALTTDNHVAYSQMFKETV
Method: (§1) Some conjugated compounds of the invention were tested for their ability to activate TLR7 and TLR2 receptor signaling. Cell-based assays were carried out using TLR7 and TLR2 reporter cell lines (InvivoGen). The reporter cell lines are engineered HEK293 cells, a human embryonic kidney cell line (ATCC, CRL-1573) that stably express either murine TLR7 (HEK-Blue™ mTLR7) or human TLR7 (HEK-Blue™ hTLR7) or murine TLR2 (HEK-Blue™ mTLR2) or human TLR2 (HEK-Blue™ hTLR2) with an NF-κB-inducible secreted embryonic alkaline phosphatase (SEAP) as the reporter gene. The SEAP reporter gene is placed under the control of the NF-κB and AP-inducible promoter. Stimulation with the corresponding TLR ligand activates NF-κB and AP-1, which induces the production of SEAP. Detection of SEAP is measured following culturing cells in HEK-Blue™ Detection media (InvivoGen). HEK-Blue™ Detection contains a SEAP substrate, which upon hydrolysis by SEAP produces a colorimetric change allowing for detection of SEAP as the protein is secreted. […] These assays were carried out using RAW-Blue™ Cells (InvivoGen), derived from RAW 264.7 mouse leukemic monocytic macrophage cell line (ATCC, CRL 2278) stably overexpressing a NF-κB/AP-1 inducible SEAP reporter constructs.
(§2) To perform the assay, cells were seeded on 96 well microliter plates at 50,000 or 100,000 cells per well for HEK-Blue™ Cells and RAW-Blue™ Cells respectively, and cultured at 37° C. in the presence of the conjugated compounds. The conjugated compounds were prepared as follows: First, stock solutions of the small molecule conjugated compounds of the invention were prepared in ethanol or water to a concentration of 10 mg/ml. A working dilution of the conjugated TLR7-TLR2 small molecules was made up in water and added to cells at a final range of concentrations from 10 μg/mL to 10 pg/ml. The working dilutions of the conjugated TLR7-TLR2 small molecules as the stated concentrations were directly added to the reporter cell lines and incubated at 37° C. for 24 hours. After 24 hours of incubation, the effect on reporter gene activity was determined by reading the OD at 655 nm using iMark™ Microplate Reader (BIO-RAD).
(§3) The conjugated compounds were tested alone for their ability to specifically activate TLR7 and TLR2, alongside the known TLR7 activators R848 or CL264 (InvivoGen) and the TLR2 agonists Pam2CSK4 or Pam3CSK4 (InvivoGen). The specificity of the TLR activity was determined by use of reporter cell lines to the other TLRs (data not shown). […] The molecules show a tendency to activate mouse TLR7 with greater sensitivity than human TLR7. […] Furthermore, dose-dependent responses of the conjugated compounds indicate significant TLR activities of TLR7 and TLR2 compared to the corresponding controls.

[1] = test system: NF-κB in RAW-Blue™ Cells (RAW 264.7, endogenous TLR7 and TLR2); assay: RAW-Blue Cells NF-κB/AP-1 inducible SEAP reporter assay; assay type: cell-based, mouse; conditions: murine monocytic macrophage cell line RAW 264.7, 24 hours, OD at 655 nm; FIGS. 5A, 5B
Method: as §1, §2, §3

B16-F1 cells = assay: B16-F1 allograft tumor mouse model, intra-tumoral injections; assay type: in vivo, C57BL/6 mice; conditions: 3 intra-tumoral injections
Method: To investigate whether administering in vivo a therapeutically effective amount of a composition concerned by the invention into a tumor environment affects tumor growth, C57BL/6 mice (Janvier S.A.S.) were shaved (on their backs) and were injected subcutaneously with approximately 50 μl (5×10^5) of viable B16-F1 cells (ATCC, CRL-6323) under anesthesia, using 7 mice per group. Once the tumor volume reached about 5 mm in diameter, around day 7 after tumor cells were grafted, the mice were divided into 2 groups. A first group (control) received intra-tumoral injections of vehicle (Glucose 5% ethanol 8% that is often used to facilitate drug solubilization and so enhance delivery), for a total of 3 injections. All animal work was carried out at the animal facility at the Institut de Pharmacologie et de Biologie Structurale (IPBS) in Toulouse, in accordance with institutional guidelines. […] By day 51 following the tumor cell graft, 60% of mice in the CL401 conjugated TLR7-TLR2 small molecule treated group were still alive. In contrast, by day 26, there was no survival of mice from the control group of vehicle treated. Tumor growth was monitored and measured with calipers after day 5 of grafting tumor cells into mice and then every 2 days after. […] Tumor volume in mm^3 was determined according to the formula V=W^2×L/2, where L=length (mm) and W=width (mm)

Structure (SMILES): CCCCCCCCCCCCCCCC(=O)OCC(CSC[C@H](N)C(=O)Nc1ccc(Cn2c(O)nc3c(N)nc(NCCCC)nc32)cc1)OC(=O)CCCCCCCCCCCCCCC (mixture of isomers) [CL401, (R)-3-(2-amino-3-(4-((6-amino-2-(butylamino)-8-hydroxy-9H-purin-9-yl)methyl)phenylamino)-3-oxopropylthio)propane-1,2-diyl dipalmitate]
- ability to activate TLR7 receptors (murine TLR7) (murine TLR7): activate TLR7 receptors
- induction of NF-κB in RAW-Blue cells [1]: activate NF-κB
- mice still alive (survival) (B16-F1 cells; by day 51 following the tumor cell graft, FIG. 6B): 60%
- tumor growth (B16-F1 cells; compared to vehicle control mice, FIG. 6A): significantly reduced

Source: US9567336B2, “Conjugated TLR7 and/or TLR8 and TLR2 agonists” (CAYLA, priority 2012, dated 2017)
